# Laboratory results published in patent publication US20200308162A1, “DRUGS AND COMPOSITIONS FOR OCULAR DELIVERY” (Graybug Vision, Inc., priority 2017, published 2020).
# Entries after “also recorded” stand apart in the source; their conditions may differ. Counter-ions that a name gives are not always drawn.
# What was measured:
# [1] = In vitro stability of ethacrynic acid prodrugs at 37° C.; format: physicochemical
# Source text: As evidenced, both prodrugs of ethacrynic acid degrade steadily over the 6 day period. As the ester linkages are hydrolyzed, the parent compound is generated in a linear rate. The rate of degradation to the parent compound is faster for the shorter […] in comparison to the degradation kinetics for ethacrynic acid-PLA(n=4)-ethyl ester (1).
# Approximately 94% of the ECA-PLA(n=4) prodrug (1) has been converted to free ECA by day 6, in comparison to only 56% for ECA-PLA(n=6) (25). Also, by day 6, all the initial prodrug has been degraded into intermediates and free drug respectively.
# [2] = Drug solubility in water, DMSO and DCM (HPLC of filtered supernatant); details: for solubility: thermodynamic from solid; for Solubility Water: 50 mg/mL target concentration
# Protocol: For each test, approximately 5-10 mg was transferred to a 10 mL glass vial. Aqueous or organic solvent was added to each vial to achieve an overall concentration of 50 mg/mL. After vortexing aggressively for 2-3 minutes and sonicating in a bath sonicator for 5 minutes, undissolved drug was spun down at 1200 rpm for 5 minutes to generate a pellet. The supernatant was collected and filtered through a 0.2 μm nylon syringe filter into HPLC vials for drug content analysis. Drug concentration was determined by comparing against a standard calibration curve.
# [3] = In vitro drug release kinetics of Timolol prodrug microparticles in PBS and 1% Tween 20 (pH 7.4) at 37° C.; format: physicochemical; details: PBS and 1% Tween 20 (pH 7.4), 37° C.
# Protocol: In vitro drug release kinetics were evaluated in a release medium composed of PBS and 1% Tween 20 (pH 7.4). Briefly, 10 mg of particles was suspended in 4 mL of the release medium The particle suspension was incubated on an orbital shaker at 150 rpm at 37° C. At various time points, 3 mL of release media was collected, and the suspension was replenished with 3 mL of fresh release media. Collected release samples were frozen and stored at −80° C. until analysis for drug content. The collected samples were filtered through a 0.2 μm syringe filter and analyzed by RP-HPLC. FIG. 17-FIG. 22 illustrate the total and parent Timolol release profile for the microparticles encapsulating bis-prodrugs of Timolol of Table 11.
# [4] = DMSO, organic solvent or mixture
# [5] = DCM, organic solvent or mixture
Compound,"solubility [2, 4] [mg/mL]",solubility ([2]; water) [mg/mL],also measured
"C=C(CC)C(=O)c1ccc(OCC(=O)O[C@@H](C)C(=O)O[C@@H](C)C(=O)OCC)c(Cl)c1Cl [Compound 2, 2-{2-[2,3-Dichloro-4-(2-methylene-butyryl)-phenoxy]-acetoxy}-propionic acid 1-ethoxycarbonyl-ethyl ester]",> 50,< 1,"generation of parent ethacrynic acid as ester linkages are hydrolyzed ([1]; 37° C. over 6 days): generated at a linear rate; rate of degradation to the parent compound / conversion to the free drug ([1]; 37° C., 6 days, comparison between prodrugs): degraded faster; also recorded: significantly faster"
"CC(C)(C)NC[C@@H](COc1nsnc1N1CCOCC1)OC(=O)CCC(=O)O [Compound 4, Succinic acid mono-[(S)-1-(tert-butylamino-methyl)-2-(4-morpholin-4-yl-[1,2,5]thiadiazol-3-yloxy)-ethyl] ester]",> 50,> 50,
"CCOC(=O)CCC(=O)O[C@@H](CNC(C)(C)C)COc1nsnc1N1CCOCC1.O=C(O)/C=C\C(=O)O [Compound 5, Timolol-O-Ethylsuccinate Maleate]",> 50,12.5,
"CCOC(=O)CCC(=O)O[C@@H](CNC(C)(C)C)COc1nsnc1N1CCOCC1.Cl [Compound 6, Timolol-O-Ethylsuccinate HCL]",> 50,6.25,
"CC(C)(C)NC[C@@H](COc1nsnc1N1CCOCC1)OC(=O)/C=C\C(=O)O [Compound 7, Timolol-O-Maleate]",> 50,> 50,
"CCOC(=O)/C=C\C(=O)O[C@@H](CNC(C)(C)C)COc1nsnc1N1CCOCC1.O=C(O)/C=C\C(=O)O [Compound 8, Timolol-O-Ethylmaleate-Maleic Acid]",> 50,< 1,
"CCCCCCCCCCCCOC(=O)/C=C/C(=O)O[C@@H](CNC(C)(C)C)COc1nsnc1N1CCOCC1 [Compound 12, Timolol-O-Laurylfumurate-Maleate]",> 100,< 1,
"CCN[C@H]1C[C@H](C)S(=O)(=O)c2sc(S(=O)(=O)NC(=O)/C=C/C(=O)OCC)cc21 [Compound 14, Dorzolamide-Ethylfumurate]",> 100,< 1,"solubility [2, 5]: > 100 mg/mL"
"CCOC(=O)/C=C\C(=O)OC(CNC(C)(C)C)COc1nsnc1N1CCOCC1 (stereo not drawn) [Compound 18, Timolol-O-Ethyl Maleate]",> 100,> 25,
C=C(CC)C(=O)c1ccc(OCC(=O)O[C@@H](C)C(=O)O[C@@H](C)C(=O)O[C@@H](C)C(=O)O[C@@H](C)C(=O)O[C@@H](C)C(=O)O[C@@H](C)C(=O)O[C@@H](C)C(=O)O[C@@H](C)C(=O)OCC)c(Cl)c1Cl [Compound 26],> 50,< 0.1,
"CC(=O)OC(C)C(=O)OC(C)C(=O)OC(C)C(=O)OC(C)C(=O)N(C[C@@H](COc1nsnc1N1CCOCC1)OC(=O)C(C)OC(=O)C(C)OC(C)=O)C(C)(C)C (stereo partly drawn) [Compound 55, Timolol-Bis-N-Acetyl-PLA (n = 4)-O-Acetyl PLA (n = 2)]",,,parent Timolol released relative to total release of prodrug and intermediates [3]: significantly less
"CC(=O)OC(C)C(=O)OC(C)C(=O)OC(C)C(=O)OC(C)C(=O)O[C@H](COc1nsnc1N1CCOCC1)CN(C(=O)C(C)OC(=O)C(C)OC(C)=O)C(C)(C)C (stereo partly drawn) [Compound 56, Timolol-Bis-N-Acetyl-PLA (n = 2)-O-Acetyl-PLA (n = 4)]",,,parent Timolol released relative to total release of prodrug and intermediates [3]: significantly less
"CCN[C@H]1C[C@H](C)S(=O)(=O)c2sc(S(N)(=O)=O)cc21 [Dorzolamide, reference compound]",< 1,> 50,"solubility [2, 5]: < 1 mg/mL"
Dorzolamide-Laurylmaleate [Compound 16],,,Solubility DMSO ([2]; DMSO): >50 mg/mL; Solubility Water ([2]; water): <1.0 mg/mL
Dorzolamide-Stearylfumurate [Compound 15],,,Solubility DMSO ([2]; DMSO): >100 mg/mL; Solubility Water ([2]; water): >50 mg/mL
Timolol-Bis-Acetyl PLA (n = 4) [Compound 54],,,parent Timolol released relative to total release of prodrug and intermediates [3]: significantly less
